Test results from ChEMBL document CHEMBL1143196, “Discovery of kinase inhibitors by high-throughput docking and scoring based on a transferable linear interaction energy model” (J Med Chem, 2008).

Test system: not listed separately
Assay: cells
Details: T-cell

`Cc1cccc(Cl)c1Nc1nc2ccc(N(C)C)cc2n2cncc12` and `CCN(CC)c1ccc2nc(Nc3c(C)cccc3Cl)c3cncn3c2c1` are within 1.5-fold of each other in IC50: 2000 nM for the first, 2600 nM for the second.

Going from `COc1ccc2c(c1)nc(Nc1c(C)cccc1Cl)c1cncn12` to `COc1ccc2nc(Nc3c(C)cccc3Cl)c3cncn3c2c1`, the IC50 falls from 2600 nM to 1400 nM (1.9-fold). The second is the more potent here.

`Cc1cccc(Cl)c1Nc1nc2ccc(N3CCOCC3)cc2n2cncc12` and `Cc1cccc(Cl)c1Nc1nc2ccc(N3CCCN(C)CC3)cc2n2cncc12` are within 1.5-fold of each other in IC50: 780 nM for the first, 540 nM for the second.

Compared with `COc1cc2nc(Nc3c(C)cccc3Cl)c3cncn3c2cc1OC`, `COc1cccc2nc(Nc3c(C)cccc3Cl)c3cncn3c12` is 3.4-fold higher in IC50: 670 nM for the first, 2300 nM for the second.

Compared with `CCN1CCN(c2ccc3nc(Nc4c(C)cccc4Cl)c4cncn4c3c2)CC1`, `Cc1cccc(Cl)c1Nc1nc2cc(N3CCNCC3)ccc2n2cncc12` is 3.7-fold higher in IC50: 270 nM for the first, 1000 nM for the second.

Biological target: Epidermal growth factor receptor (Homo sapiens, UniProt P00533)
Sequence (P00533 whole entry): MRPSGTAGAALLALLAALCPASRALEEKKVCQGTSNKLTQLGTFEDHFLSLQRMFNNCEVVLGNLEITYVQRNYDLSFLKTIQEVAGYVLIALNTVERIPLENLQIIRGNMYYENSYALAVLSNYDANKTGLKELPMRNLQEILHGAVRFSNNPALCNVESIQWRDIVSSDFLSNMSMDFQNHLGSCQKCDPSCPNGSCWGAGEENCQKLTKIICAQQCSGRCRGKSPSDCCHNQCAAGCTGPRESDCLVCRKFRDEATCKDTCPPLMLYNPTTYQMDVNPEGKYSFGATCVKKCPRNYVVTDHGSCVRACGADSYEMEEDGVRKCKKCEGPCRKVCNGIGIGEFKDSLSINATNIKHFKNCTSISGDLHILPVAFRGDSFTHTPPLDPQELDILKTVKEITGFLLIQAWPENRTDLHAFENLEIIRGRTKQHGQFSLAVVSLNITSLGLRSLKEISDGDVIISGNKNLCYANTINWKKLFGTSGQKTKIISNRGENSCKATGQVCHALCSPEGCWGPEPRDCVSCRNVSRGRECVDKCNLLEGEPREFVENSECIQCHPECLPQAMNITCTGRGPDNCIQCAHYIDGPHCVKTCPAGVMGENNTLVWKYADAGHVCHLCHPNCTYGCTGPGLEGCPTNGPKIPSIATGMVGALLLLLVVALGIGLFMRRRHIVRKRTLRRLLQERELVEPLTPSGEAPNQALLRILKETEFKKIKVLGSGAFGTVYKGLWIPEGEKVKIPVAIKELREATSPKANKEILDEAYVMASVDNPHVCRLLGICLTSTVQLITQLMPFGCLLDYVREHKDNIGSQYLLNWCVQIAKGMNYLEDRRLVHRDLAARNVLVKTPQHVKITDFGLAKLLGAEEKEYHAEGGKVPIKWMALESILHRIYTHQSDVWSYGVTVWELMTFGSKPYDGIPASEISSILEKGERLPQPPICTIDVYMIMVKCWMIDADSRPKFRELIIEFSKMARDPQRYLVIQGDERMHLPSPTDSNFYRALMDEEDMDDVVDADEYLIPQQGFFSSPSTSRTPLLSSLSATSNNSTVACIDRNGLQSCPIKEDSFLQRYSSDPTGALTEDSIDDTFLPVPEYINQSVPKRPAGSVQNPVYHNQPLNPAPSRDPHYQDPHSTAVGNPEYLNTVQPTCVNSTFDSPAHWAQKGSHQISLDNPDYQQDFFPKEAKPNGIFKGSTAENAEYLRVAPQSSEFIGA
Assay: not given
Details: not given

First: Brc1cccc(Nc2ncnc3ccccc23)c1
Second: Ic1cccc(Nc2ncnc3ccccc23)c1
The IC50 of the first is 3-fold lower: 27.5 nM for the first, 81.3 nM for the second. The first is the more potent here.

First: Brc1cccc(Nc2ncnc3cccnc23)c1
Second: Nc1ccc2ncnc(Nc3cccc(Br)c3)c2n1
The IC50 of the first is 4.5-fold higher: 34.7 nM for the first, 7.76 nM for the second.

Compared with `COc1ccc2ncnc(Nc3ccccc3)c2c1` [listing 1 of 2 here], `COc1ccc2ncnc(Nc3cccc(Br)c3)c2c1` is 6.3-fold higher in IC50: 56.2 nM for the first, 355 nM for the second.

First: OCCN(CCO)CCCNc1c(Br)cccc1Nc1ncnc2ccncc12
Second: OCCN(CCO)CCNc1c(Br)cccc1Nc1ncnc2ccncc12
The IC50 of the first is 7.8-fold lower: 1.2 nM for the first, 9.33 nM for the second.

Going from `CC(=O)Nc1ccc2c(Nc3cccc(Br)c3)ncnc2c1` to `Oc1ccc2c(Nc3cccc(Br)c3)ncnc2c1`, the IC50 falls from 40.7 nM to 4.79 nM (8.5-fold).

First: OCCNc1c(Br)cccc1Nc1ncnc2ccncc12
Second: O=C(O)CCNc1c(Br)cccc1Nc1ncnc2ccncc12
The IC50 of the first is 2.5-fold lower: 0.245 nM for the first, 0.617 nM for the second. The first is the more potent here.

First: CN(C)c1ccc2c(Nc3cccc(Br)c3)ncnc2c1
Second: CN(C)c1ccc2ncnc(Nc3cccc(Br)c3)c2c1
The IC50 of the first is 7.6-fold lower: 11.2 nM for the first, 85.1 nM for the second.

Compared with `Oc1cc2ncnc(Nc3cccc(Br)c3)c2cc1O`, `Nc1cc2c(Nc3cccc(Br)c3)ncnc2cc1Cl` is 38-fold higher in IC50: 0.174 nM for the first, 6.61 nM for the second.

Compared with `Clc1cccc(Nc2ncnc3ccccc23)c1`, `FC(F)(F)c1cccc(Nc2ncnc3ccccc23)c1` is 25-fold higher in IC50: 23.4 nM for the first, 589 nM for the second.

Compared with `COc1cc2ncnc(Nc3ccccc3)c2cc1OC`, `COc1cc2ncnc(Nc3ccc(Br)cc3)c2cc1OC` is 410-fold lower in IC50: 29.5 nM for the first, 0.0724 nM for the second.

`Fc1c(Br)cccc1Nc1ncnc2ccncc12` and `Nc1c(Br)cccc1Nc1ncnc2ccncc12` are within 1.5-fold of each other in IC50: 13.2 nM for the first, 10 nM for the second.

Going from `Brc1cccc(Nc2ncnc3cnc(NCCn4ccnc4)nc23)c1` to `CNc1ncc2ncnc(Nc3cccc(Br)c3)c2n1`, the IC50 falls from 2.34 nM to 0.776 nM (3-fold).

Going from `Brc1cccc(Nc2ncnc3ccncc23)c1NCCCCN1CCOCC1` to `Brc1cccc(Nc2ncnc3ccncc23)c1NCCCN1CCOCC1`, the IC50 falls from 5.5 nM to 1.91 nM (2.9-fold).

Compared with `COc1cc2ncnc(Nc3ccccc3N)c2cn1`, `Nc1ccccc1Nc1ncnc2cc(Br)ncc12` is 15-fold lower in IC50: 3720 nM for the first, 245 nM for the second. The second is the more potent here.

Compared with `Brc1cccc(Nc2ncnc3ccncc23)c1NCCc1c[nH]cn1`, `CN(C)CCNc1c(Br)cccc1Nc1ncnc2ccncc12` is 50-fold higher in IC50: 0.912 nM for the first, 45.7 nM for the second. The first is the more potent here.

`CN(C)CCCCNc1c(Br)cccc1Nc1ncnc2ccncc12` and `CN(C)CCCCCNc1c(Br)cccc1Nc1ncnc2ccncc12` are within 1.5-fold of each other in IC50: 7.41 nM for the first, 8.51 nM for the second.

Compared with `CNc1ccc2ncnc(Nc3cccc(Br)c3)c2n1`, `Fc1ccc2ncnc(Nc3cccc(Br)c3)c2n1` is 14-fold higher in IC50: 3.16 nM for the first, 44.7 nM for the second.

Compared with `COc1ccc2ncnc(Nc3ccccc3)c2c1` [listing 2 of 2 here], `CNc1ccc2ncnc(Nc3cccc(Br)c3)c2c1` is 29-fold lower in IC50: 120 nM for the first, 4.07 nM for the second. The second is the more potent here.

First: Cc1cccc(Nc2ncnc3ccncc23)c1NCCCn1ccnc1
Second: Brc1cccc(Nc2ncnc3ccncc23)c1NCCCn1ccnc1
The IC50 of the first is 6.9-fold higher: 3.55 nM for the first, 0.513 nM for the second.

First: Cc1cccc(Nc2ncnc3cnc(NCCN4CCOCC4)nc23)c1
Second: Cc1cccc(Nc2ncnc3cnc(N)nc23)c1
The IC50 of the first is 7.4-fold lower: 2.34 nM for the first, 17.4 nM for the second.

`Cc1cccc(Nc2ncnc3ccncc23)c1NCCCN1CCN(C)CC1` and `CN1CCN(CCCNc2c(Br)cccc2Nc2ncnc3ccncc23)CC1` are within 1.5-fold of each other in IC50: 5.62 nM for the first, 5.01 nM for the second.

Compared with `CN(CC(=O)O)c1c(Br)cccc1Nc1ncnc2ccncc12`, `CN(CCO)c1c(Br)cccc1Nc1ncnc2ccncc12` is 6.2-fold lower in IC50: 16.2 nM for the first, 2.63 nM for the second.

Compared with `Clc1ncc2ncnc(Nc3cccc(Br)c3)c2n1`, `Clc1cc2c(Nc3cccc(Br)c3)ncnc2cn1` is 2-fold lower in IC50: 83.2 nM for the first, 40.7 nM for the second. The second is the more potent here.

Compared with `CCCOc1cc2ncnc(Nc3cccc(Br)c3)c2cc1OCCC`, `CN(C)c1cc2ncnc(Nc3cccc(Br)c3)c2cc1N` is 930-fold higher in IC50: 0.174 nM for the first, 162 nM for the second. The first is the more potent here.

Going from `COc1ccc2ncnc(Nc3cccc(Br)c3)c2n1` to `CN(C)c1ccc2ncnc(Nc3cccc(Br)c3)c2n1`, the IC50 rises from 4.37 nM to 9.77 nM (2.2-fold). The first is the more potent here.

Going from `CNc1cc2ncnc(Nc3cccc(Br)c3)c2cc1[N+](=O)[O-]` to `O=[N+]([O-])c1ccc2ncnc(Nc3cccc(Br)c3)c2c1`, the IC50 rises from 69.2 nM to 912 nM (13-fold). The first is the more potent here.

First: Nc1cc2ncnc(Nc3ccccc3N)c2cn1
Second: Nc1ccccc1Nc1ncnc2ccncc12
The IC50 of the first is 21-fold higher: 5370 nM for the first, 251 nM for the second. The second is the more potent here.

`OCN(CO)c1c(Br)cccc1Nc1ncnc2ccncc12` and `OCCN(CCO)c1c(Br)cccc1Nc1ncnc2ccncc12` are within 1.5-fold of each other in IC50: 14.1 nM for the first, 12 nM for the second.

First: CNc1ncc2ncnc(Nc3ccccc3)c2n1
Second: Cc1cccc(Nc2ncnc3cnc(N(C)C)nc23)c1
The IC50 of the first is 3.2-fold higher: 13.2 nM for the first, 4.07 nM for the second.

First: O=C(O)CCCNc1c(Br)cccc1Nc1ncnc2ccncc12
Second: O=C(O)CNc1c(Br)cccc1Nc1ncnc2ccncc12
The IC50 of the first is 5.4-fold lower: 0.282 nM for the first, 1.51 nM for the second. The first is the more potent here.

Compared with `CN(C)c1cccc(Nc2ncnc3ccncc23)c1N`, `Nc1c(F)cccc1Nc1ncnc2ccncc12` is 2.1-fold lower in IC50: 1820 nM for the first, 851 nM for the second.

Compared with `CN(C)CCCNc1c(Br)cccc1Nc1ncnc2ccncc12`, `Cc1cccc(Nc2ncnc3ccncc23)c1NCCCCN(C)C` is 1.6-fold lower in IC50: 8.91 nM for the first, 5.5 nM for the second. The second is the more potent here.

`Brc1cccc(Nc2ncnc3ccncc23)c1` and `Nc1cc(Br)ccc1Nc1ncnc2ccncc12` are within 1.5-fold of each other in IC50: 35.5 nM for the first, 25.7 nM for the second.

Compared with `O=[N+]([O-])c1ccc2c(Nc3cccc(I)c3)ncnc2c1`, `Fc1cc2c(Nc3cccc(Br)c3)ncnc2cn1` is 4.4-fold lower in IC50: 550 nM for the first, 126 nM for the second.

Going from `CN(C)c1ccc(Nc2ncnc3ccncc23)c(N)c1` to `COc1ccc(Nc2ncnc3ccncc23)c(N)c1`, the IC50 falls from 4900 nM to 676 nM (7.2-fold). The second is the more potent here.

`COc1ccc(CNc2cc3c(Nc4cccc(Br)c4)ncnc3cn2)cc1` and `COc1cc2c(Nc3cccc(Br)c3)ncnc2cn1` are within 1.5-fold of each other in IC50: 2.34 nM for the first, 2.63 nM for the second.

Compared with `COc1cccc(Nc2ncnc3ccncc23)c1N`, `Nc1c(O)cccc1Nc1ncnc2ccncc12` is 1.9-fold lower in IC50: 132 nM for the first, 70.8 nM for the second.

Compared with `OCC(O)CNc1c(Br)cccc1Nc1ncnc2ccncc12` (configuration not stated), `CN(CC(O)CO)c1c(Br)cccc1Nc1ncnc2ccncc12` (configuration not stated) is 3.5-fold higher in IC50: 0.933 nM for the first, 3.24 nM for the second. The first is the more potent here.

Going from `COc1cc2ncnc(Nc3cccc(C(F)(F)F)c3)c2cc1OC` to `Nc1cc(C(F)(F)F)ccc1Nc1ncnc2ccncc12`, the IC50 rises from 0.245 nM to 4790 nM (20000-fold). The first is the more potent here.

First: COc1c(Br)cccc1Nc1ncnc2ccncc12
Second: NNc1c(Br)cccc1Nc1ncnc2ccncc12
The IC50 of the first is 5.5-fold higher: 39.8 nM for the first, 7.24 nM for the second.

`CN(C)CCN(C)c1c(Br)cccc1Nc1ncnc2ccncc12` and `CC(=O)Nc1c(Br)cccc1Nc1ncnc2ccncc12` are within 1.5-fold of each other in IC50: 40.7 nM for the first, 29.5 nM for the second.

Going from `O=S(=O)(O)CCNc1c(Br)cccc1Nc1ncnc2ccncc12` to `Brc1cccc(Nc2ncnc3ccncc23)c1NCCN1CCOCC1`, the IC50 rises from 1.41 nM to 3.24 nM (2.3-fold).

Compared with `Nc1c(Nc2ncnc3ccncc23)cccc1[N+](=O)[O-]`, `Nc1c(Cl)cccc1Nc1ncnc2ccncc12` is 2.9-fold higher in IC50: 40.7 nM for the first, 120 nM for the second.

In the case of `CN(C)c1ccc2c(Nc3cccc(Br)c3)ncnc2n1`, the IC50 is reported as 331 nM.
